Measurements from paper PMC8874959 (Viruses, 2022).
≈ marks a conversion by molar mass, not a printed value. Entries after “also recorded” stand apart in the source; their conditions may differ. Where two headings read alike, the source gives them in different places.

Key:
[1] = cited from earlier work; for Plasma protein binding: Table S3, ref DrugBank, PubChem, Warhurst, et al JAC 2003, Schroeder and Gerber Toxicol. Rep. 2014
SARS-CoV-2 [2] = conditions: cited from earlier work
in vitro [3] = format: cell-based; conditions: African green monkey
[4] = ref DrugBank; PubChem; Warhurst, et al JAC 2003; Schroeder and Gerber Toxicol. Rep. 2014; cited from earlier work
tuberculosis = conditions: cited from earlier work
SARS-CoV-2 [5] = conditions: Vero-E6, cited from earlier work
SARS-CoV-2 Gamma strain = assay: microbe, parasite or virus in culture; format: cell-based; conditions: Severe acute respiratory syndrome coronavirus 2; Calu-3, Gamma strain, MOI 0.1, 48 hpi
[6] = cited from earlier work; for Cmax: human plasma
in vitro [7] = format: cell-based; conditions: human
SARS-CoV-2 [8] = format: cell-based
[9] = PBPK input, cited from earlier work
[10] = system: SARS-CoV-2-infected monocytes; format: cell-based, human
SARS-CoV-2 [11] = format: cell-based; remark: listed apart in the source

Structure (SMILES) | Plasma protein binding [1] | Antiviral activity in SARS-CoV-2-infected Calu-3 cells (SARS-CoV-2 [2]) | LogP [4] | pKa1 [4] | pKa2 [4] | pKa3 [4] | EC50 (SARS-CoV-2 Gamma strain) [nM] | EC90 (SARS-CoV-2 Gamma strain) [nM] | CC50 (in vitro [7]) [µM] | CC50 (in vitro [3]) [µM] | other results
CCN(CC)CCCC(C)Nc1ccnc2cc(Cl)ccc12 (stereo not drawn) [Chloroquine] | 46-74% | inactive; also recorded: lacks antiviral activity | – | – | – | – | – | – | – | – | CC50 at 72 h (in vitro [3]; Vero E6, 72 h): 259 ± 5 µM
CCN(CCO)CCCC(C)Nc1ccnc2cc(Cl)ccc12 (stereo not drawn) [Hydroxychloroquine, hydroxychloroquine] | 50% | lacks antiviral activity | 4.12 | < 4.0 | 8.3 | 9.7 | – | – | – | – | Lipinski’s rule of five [4]: Yes; Physiological charge [4]: +2
OC(c1cc(C(F)(F)F)nc2c(C(F)(F)F)cccc12)C1CCCCN1 (stereo not drawn) [Mefloquine] | > 98% | – | 3.90 | lower than 3.0 | 9.46 | 13.79 | 1200 ± 400 | 2700 ± 300 | 19.9 ± 0.06 | 9.2 ± 0.3 | Minimal inhibitory concentration (tuberculosis): 20 µM (≈ 7.57 µg/mL); EC90 (SARS-CoV-2 [5]; ref 8 (supplement)): 3064.3 ng/mL (≈ 8.1 µM); EC90 (SARS-CoV-2 [5]; ref 9 (supplement)): 2455.2 ng/mL (≈ 6.49 µM); EC90 (SARS-CoV-2 [5]; ref 10 (supplement)): 2513.8 ng/mL (≈ 6.64 µM); Half-life [6]: measured in weeks; Cmax ([6]; equivalent): 8.67 µM; Cmax [6]: 3279 ng/mL; Number of viral particles in the endosomes (SARS-CoV-2 [8]): reduced the number of viral particles in the endosomes; Protein binding ([1]; PBPK input, ref 12 (supplement)): 98%; Half-life ([9]; ref 11 (supplement)): 2-4 weeks; Intrinsic clearance ([9]; ref 12 (supplement)): 10.47 L/h; Log P ([9]; ref 12 (supplement)): 3.87; pKa (diprotic base) ([9]; ref 12 (supplement)): 8.7; Water solubility [4]: 0.0380 mg/mL; Virus-induced IL-6 levels [10]: reduce the augmentation of these cytokines in a donor-dependent manner; Virus-induced TNF-α levels [10]: reduce the augmentation of these cytokines in a donor-dependent manner; Virus-induced monocyte death (LDH) [10]: reduce virus-induced monocyte death
CCC(CC)COC(=O)[C@H](C)N[P@](=O)(OC[C@H]1O[C@@](C#N)(c2ccc3c(N)ncnn23)[C@H](O)[C@@H]1O)Oc1ccccc1 [Remdesivir] | – | – | – | – | – | – | 10 ± 8 | 200 ± 20 | 480 ± 20 | 512 ± 30 | Improvement of remdesivir's efficiency (SARS-CoV-2 [11]): 200 fold
